Measurements from US20240041023A1, “COMPOSITION AND METHOD OF PRESERVING VIABILITY OF CELL IN A LOW TEMPERATURE” (THE UNITED STATES OF AMERICA, AS REPRESENTED BY THE …, priority 2020, published 2024).
“Also recorded” adds a separate entry of the source.

Experiments:
mouse pancreatic islets = experiment: Cold survival of mouse pancreatic islets in preservation solutions; format: cell-based; details: N-EM added into UW solution, 2-D08 or ginkgolic acid added into HS solution
Procedure: (§1) N-EM and protease inhibitors are added into HS to make HS+.

FOXO1 [1] = experiment: FOXO1-dependent survival pathway and FOXO1 nuclear entry in cold stored mouse islets; format: cell-based; details: mouse pancreatic islets; inhibitor added to HS solution
Procedure: as §1

mice pancreatic islets = experiment: Mouse pancreatic islets stored at 4° C. versus 1640 culture solution; format: cell-based; details: mice pancreatic islets stored at 4° C.; C6 and Apigenin added to the novel preservation solution (MM)
Procedure: In another example, mice pancreatic islets were extracted and stored at 4° C. in cold storage. The conventional 1640 culture solution which is commonly used is used as a control group.

[2] = tested on: rat corneal endothelial cells; experiment: Cold preservation of rat cornea: endothelial cell mortality (PI positive cells) and immunofluorescence staining; format: cell-based; details: 6-month-old rat cornea
Procedure: After injection of 0.5 μL C6 solution (10 μM/μL in goat serum solvent) into the anterior chamber of the eye through the limbal stroma. After 90 minutes, the cornea was taken and cold stored in a corneal preservation solution. After cold storage for 3 weeks and 4 weeks, the cold storage results were evaluated by immunofluorescence staining.
The corneal preservation solution of this example is the novel corneal preservation solution prepared in Example 3, with 20 μM C6 and the protease inhibitor mixture Pi (as described in WO2019/040359A1) added, and the final concentrations of the components in the protease inhibitor mixture Pi in the cold preservation solution are respectively: pepstatin 1 μM; leupeptin 2 μM; bestatin 5 μM; […] 0.5 μM; aprotinin 0.08 μM; AEBSF 100 μM.
0.5 μL of Apigenin solution (concentration 4 μM/μL, in goat serum solvent) was injected into the anterior chamber through the limbal stroma, and 20 minutes later, the cornea was removed and stored in the novel preservation solution prepared in Example 3 (with 4 μM Apigenin and Pi previously added). After cold storage for 3 weeks and 4 weeks, the cold storage results were evaluated by immunofluorescence staining.

FOXO1 [3] = experiment: FOXO1 nuclear entry in corneal endothelial cells after anterior chamber injection (immunofluorescence); format: in vivo, rat; details: 6-month-old rats
human islets = experiment: Cold storage of human islets; format: cell-based; details: prolonged cold storage
[4] = after anterior chamber injection (C6 20 μM/μL, Apigenin 4 μM/μL, goat serum solvent), before cold stimulation
[5] = after anterior chamber injection and cold stimulation

Molecule	islet cold survival / islet cell death (mouse pancreatic islets)	cold-induced FOXO1 nuclear entry (FOXO1 [1])	islet cell death (mice pancreatic islets)	corneal endothelial cell death, in words ([2]; cold preservation 3 weeks)	FOXO1 nucleus entry in corneal endothelial cells (FOXO1 [3]; [4])	FOXO1 nucleus entry in corneal endothelial cells (FOXO1 [3]; [5])	other results
O=c1cc(-c2ccc(O)c(O)c2O)oc2ccccc12 [2-D08]	islet cell death became severe	repressed					
O=c1cc(-c2ccc(O)cc2)oc2cc(O)cc(O)c12 [Apigenin]			further reduced the number of dead cells	decreased mortality	did not cause FOXO1 to enter nucleus	activated FOXO1 to enter the nucleus	corneal endothelial cell death, in words ([2]; cold storage 4 weeks): significantly reduced; corneal endothelium structure (hexagonal structure, F-actin, nuclei) ([2]; cold storage 4 weeks (28 days, 4° C.)): largely intact endothelium; FOXO1 nucleus entry in corneal endothelial cells (FOXO1 [3]; after cold stimulation and rewarming): weak nuclear entering effect is still maintained
CCCCCCCCCCCCC/C=C/[C@@H](O)[C@H](CO)NC(=O)CCCCC [C6, C6 ceramide]			further reduced the number of dead cells	reduction in the number of dead corneal endothelial cells	activate FOXO1 nucleus entry	nucleus entry signal was enhanced	
CCN1C(=O)C=CC1=O [N-Ethylmaleimide]	enables longer term cold storage; also recorded: islet cold survival is improved						outcome of cold storage of human islets (human islets): enables longer term cold storage
ginkgolic acid	islet cell death became severe	repressed					
